The record followed here is PubChem BioAssay AID330 (DTP/NCI, 2004).

The test system of the experiment is P388 leukemia ip, CD2F1 mice, survival T/C. Kind of experiment: NCI In Vivo Anticancer Drug Screen. Data for tumor model P388 Leukemia (intraperitoneal) in CD2F1 (CDF1) mice. The note with it: endpoint: median survival time, higher = longer survival. Put shortly: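 Mice carrying the transplanted tumor received test compound or vehicle. Survival was recorded in each group, and the value is the treated-group measurement divided by that of the vehicle-treated control group.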

[1] abbreviates: dose: 25.0 mg/kg/injection, schedule: Q01DX009 (ip), vehicle: Klucel (hydroxypropylcellulose) (HPC).
Setting [2] is: dose: 50.0 mg/kg/injection, schedule: Q01DX009 (ip), vehicle: Klucel (hydroxypropylcellulose) (HPC).
Where [3] appears, read: dose: 100.0 mg/kg/injection, schedule: Q01DX009 (ip), vehicle: Klucel (hydroxypropylcellulose) (HPC).
[4] abbreviates: dose: 200.0 mg/kg/injection, schedule: Q01DX009 (ip), vehicle: Klucel (hydroxypropylcellulose) (HPC).
The mark [5] stands for this setting: dose: 100.0 mg/kg/injection, schedule: Q04DX003 (ip), vehicle: saline with Tween-80.
The mark [6] stands for this setting: dose: 25.0 mg/kg/injection, schedule: Q01DX005 (ip), vehicle: Klucel (hydroxypropylcellulose) (HPC).
Where [7] appears, read: dose: 50.0 mg/kg/injection, schedule: Q01DX005 (ip), vehicle: Klucel (hydroxypropylcellulose) (HPC).
[8] abbreviates: dose: 100.0 mg/kg/injection, schedule: Q01DX005 (ip), vehicle: Klucel (hydroxypropylcellulose) (HPC).
Where [9] appears, read: dose: 200.0 mg/kg/injection, schedule: Q01DX005 (ip), vehicle: Klucel (hydroxypropylcellulose) (HPC).
Where [10] appears, read: dose: 60.0 mg/kg/injection, schedule: Q01DX005 (ip), vehicle: saline with Tween-80.
The mark [11] stands for this setting: dose: 120.0 mg/kg/injection, schedule: Q01DX005 (ip), vehicle: saline with Tween-80.
Where [12] appears, read: dose: 50.0 mg/kg/injection, schedule: Q01DX005 (ip), vehicle: saline with Tween-80.
Where [13] appears, read: dose: 100.0 mg/kg/injection, schedule: Q01DX005 (ip), vehicle: saline with Tween-80.
[14] abbreviates: dose: 200.0 mg/kg/injection, schedule: Q01DX005 (ip), vehicle: saline with Tween-80.
[15] abbreviates: dose: 6.25 mg/kg/injection, schedule: Q01DX005 (ip), vehicle: Klucel (hydroxypropylcellulose) (HPC).
Setting [16] is: dose: 12.5 mg/kg/injection, schedule: Q01DX005 (ip), vehicle: Klucel (hydroxypropylcellulose) (HPC).
The mark [17] stands for this setting: dose: 240.0 mg/kg/injection, schedule: Q01DX005 (ip), vehicle: saline with Tween-80.

Several values for one entry are separate records, joined by “and”; a condition that tells them apart may be missing. Identical values can stand only once. Inconclusive results and toxic doses are left out.

In the case of `C[C@]12CCC[C@@H]3C[C@@]31C[C@@H]([C@@]1(C)CO1)CC2`, the T/C runs as follows: under setting [1], 98 % of control and 91 % of control; under setting [2], 102 % of control and 106 % of control; under setting [3], 102 % of control and 104 % of control and 88 % of control; under setting [4], 100 % of control and 120 % of control.
Regarding `COC(=O)Cn1/c(=N\N=C\c2ccccc2)sc2ccccc21`, the T/C (dose: 100.0 mg/kg/injection, schedule: Q01DX001 (ip), vehicle: saline with Tween-80) is 90 % of control; the T/C (dose: 200.0 mg/kg/injection, schedule: Q01DX001 (ip), vehicle: saline with Tween-80) was 87 % of control; the T/C (dose: 400.0 mg/kg/injection, schedule: Q01DX001 (ip), vehicle: saline with Tween-80) is 88 % of control.
On to `CN1C(=O)C(=O)N(Cc2ccc(CN3C(=O)C(=O)N(C)C3=O)cc2)C1=O`, for which the T/C runs as follows: under setting [2], 101 % of control; under setting [3], 103 % of control; under setting [4], 100 % of control.
On to `CC(C)=C/C(C)=N/Nc1ccc([N+](=O)[O-])cc1[N+](=O)[O-]`, for which the T/C reads like this: (dose: 25.0 mg/kg/injection, schedule: Q04DX003 (ip), vehicle: saline with Tween-80) 100 % of control; (dose: 50.0 mg/kg/injection, schedule: Q04DX003 (ip), vehicle: saline with Tween-80) 100 % of control; under setting [5], 100 % of control.
On to `O=C1CSC(c2c(F)cccc2Cl)N1c1cnccn1` (stereo not drawn), for which the T/C under setting [6] is 99 % of control, the T/C under setting [7] was 102 % of control, the T/C under setting [8] was 101 % of control and the T/C under setting [9] is 106 % of control.
Consider `CC(C)C1=CC23CCC4C(C)(C(=O)O)CCCC4(C)C2CC1C1C(=O)N(CCCN(C)C)C(=O)C13` (stereo not drawn), for which the T/C is 104 % of control under setting [10] and 99 % of control under setting [11].
With `O=C(O)C1C(CCl)=C1CCl`, the T/C runs as follows: (dose: 60.0 mg/kg/injection, schedule: Q01DX005 (ip), vehicle: Klucel (hydroxypropylcellulose) (HPC)) 100 % of control; (dose: 120.0 mg/kg/injection, schedule: Q01DX005 (ip), vehicle: Klucel (hydroxypropylcellulose) (HPC)) 104 % of control.
With `CC(O)(Cc1ccccc1)c1ccccc1` (stereo not drawn), the T/C is, setting by setting: under setting [5], 100 % of control; (dose: 200.0 mg/kg/injection, schedule: Q04DX003 (ip), vehicle: saline with Tween-80) 104 % of control; (dose: 400.0 mg/kg/injection, schedule: Q04DX003 (ip), vehicle: saline with Tween-80) 109 % of control.
As for `Clc1ccc(N2C(c3ccccc3)=N[C@@H](N3CCCCC3)[C@@H]2N2CCCCC2)cc1`, the T/C is 102 % of control under setting [7], 98 % of control under setting [8] and 93 % of control under setting [9].
`CC(C)C1(C(=O)NNC(=O)CCCc2ccc(N(CCCl)CCCl)cc2)OC2(O)CCCCCN2C1=O` (stereo not drawn): the T/C (dose: 6.25 mg/kg/injection, schedule: Q04DX003 (ip), vehicle: Klucel (hydroxypropylcellulose) (HPC)) was 109 % of control; the T/C (dose: 12.5 mg/kg/injection, schedule: Q04DX003 (ip), vehicle: Klucel (hydroxypropylcellulose) (HPC)) was 121 % of control; the T/C (dose: 100.0 mg/kg/injection, schedule: Q04DX003 (ip), vehicle: Klucel (hydroxypropylcellulose) (HPC)) is 184 % of control.
For the compound `Cc1nc(C#N)c(=N)n(CCCO)c1-c1ccccc1`, the T/C is, setting by setting: under setting [10], 109 % of control; under setting [11], 101 % of control.
As to `O=C1C=C(Nc2ccccn2)C(=O)C=C1Nc1ccccn1`, the T/C reads like this: under setting [12], 107 % of control; under setting [13], 107 % of control; under setting [14], 105 % of control.
With `CC1CCN(SSc2nc3ccccc3s2)CC1`, the T/C reads like this: (dose: 50.0 mg/kg/injection, schedule: Q01DX009 (ip), vehicle: saline with Tween-80) 104 % of control and 116 % of control; (dose: 100.0 mg/kg/injection, schedule: Q01DX009 (ip), vehicle: saline with Tween-80) 107 % of control and 112 % of control; (dose: 200.0 mg/kg/injection, schedule: Q01DX009 (ip), vehicle: saline with Tween-80) 110 % of control and 118 % of control; (dose: 400.0 mg/kg/injection, schedule: Q01DX009 (ip), vehicle: saline with Tween-80) 114 % of control.
As for `O=S(=O)(CCNCCCCC1CCCCC1)SCCNCCCCC1CCCCC1`, the T/C is, setting by setting: under setting [15], 100 % of control; under setting [16], 101 % of control; under setting [6], 95 % of control.
For the compound `Clc1c2ccccc2[se][n+]1Cc1ccccc1`, the T/C was 104 % of control and 108 % of control and 111 % of control (dose: 12.5 mg/kg/injection, schedule: Q01DX009 (ip), vehicle: Klucel (hydroxypropylcellulose) (HPC)); 105 % of control and 106 % of control and 112 % of control under setting [1]; 105 % of control and 107 % of control and 121 % of control under setting [2]; 106 % of control and 110 % of control under setting [3].
For the compound `COC(=O)CCC(Cl)(Cl)Cl`, the T/C was 102 % of control under setting [2], 102 % of control under setting [3] and 100 % of control under setting [4].
In the case of `Cc1[nH]nc(N)c1C(N)=O`, the T/C was 100 % of control under setting [10], 99 % of control under setting [11] and 86 % of control under setting [17].
Take `CC1(C)Cc2oc(=O)n(-c3ccccc3)c(=O)c2C1`: the T/C is, setting by setting: under setting [2], 100 % of control; under setting [3], 102 % of control; under setting [4], 100 % of control.
As to `CC#CCOCC1CO1` (stereo not drawn), the T/C is, setting by setting: (dose: 14.6 mg/kg/injection, schedule: Q01DX009 (ip), vehicle: saline) 100 % of control; (dose: 22.0 mg/kg/injection, schedule: Q01DX009 (ip), vehicle: saline) 109 % of control; (dose: 33.0 mg/kg/injection, schedule: Q01DX009 (ip), vehicle: saline) 118 % of control; (dose: 50.0 mg/kg/injection, schedule: Q01DX009 (ip), vehicle: saline) 118 % of control.
As for `CC1C(=O)OC(C(Cl)(Cl)Cl)N1C` (stereo not drawn), the T/C reads like this: under setting [10], 97 % of control; under setting [11], 97 % of control; under setting [17], 94 % of control.
`O=C(Nc1ccccc1)Nc1c2c(nc3ccccc13)CCCCC2`: the T/C was 86 % of control under setting [12], 89 % of control under setting [13] and 90 % of control under setting [14].
As for `C=C(C)C1CC2(C)C(C)C(OC(=O)/C(C)=C\C)CCC2C(O)C1=O` (stereo not drawn), the T/C is, setting by setting: (dose: 15.0 mg/kg/injection, schedule: Q04DX002 (ip), vehicle: distilled water + alcohol) 96 % of control; (dose: 30.0 mg/kg/injection, schedule: Q04DX002 (ip), vehicle: distilled water + alcohol) 104 % of control; (dose: 57.5 mg/kg/injection, schedule: Q04DX002 (ip), vehicle: distilled water + alcohol) 107 % of control.
`c1ccc(Cc2ccc[nH]2)cc1`: the T/C is 100 % of control (dose: 100.0 mg/kg/injection, schedule: Q01DX001 (ip), vehicle: distilled water + alcohol); 98 % of control (dose: 200.0 mg/kg/injection, schedule: Q01DX001 (ip), vehicle: distilled water + alcohol); 112 % of control (dose: 400.0 mg/kg/injection, schedule: Q01DX001 (ip), vehicle: distilled water + alcohol).
On to `CC1=NOC2C1Sc1ccccc1N2C` (stereo not drawn), for which the T/C under setting [7] is 103 % of control, the T/C under setting [8] was 102 % of control and the T/C under setting [9] was 100 % of control.
In the case of `CCN1c2ccccc2CC(CCN(C(C)C)C(C)C)(C(N)=O)c2ccccc21` (stereo not drawn), the T/C was 95 % of control (dose: 25.0 mg/kg/injection, schedule: Q04DX002 (ip), vehicle: saline with Tween-80); 95 % of control (dose: 50.0 mg/kg/injection, schedule: Q04DX002 (ip), vehicle: saline with Tween-80); 95 % of control (dose: 100.0 mg/kg/injection, schedule: Q04DX002 (ip), vehicle: saline with Tween-80).
On to `C=CCOc1cc2c(cc1C(C)c1ccc(OCC)c(C)c1)OCO2` (stereo not drawn), for which the T/C is, setting by setting: under setting [12], 106 % of control; under setting [13], 103 % of control; under setting [14], 106 % of control.
In the case of `O=S1(=O)CS(=O)(=O)OCCCO1`, the T/C under setting [15] is 151 % of control and the T/C under setting [16] is 169 % of control.
Turning to `O=C(Nc1ccccc1)C1(C(=O)Nc2ccccc2)SSC(C(=O)Nc2ccccc2)(C(=O)Nc2ccccc2)SS1`, the T/C is 107 % of control under setting [12], 96 % of control under setting [13] and 89 % of control under setting [14].
Consider `c1ccc(OC2CCCCC2N2CCOCC2)cc1` (stereo not drawn), for which the T/C is 87 % of control (dose: 50.0 mg/kg/injection, schedule: Q01DX009 (ip), vehicle: suspension in saline); 87 % of control (dose: 100.0 mg/kg/injection, schedule: Q01DX009 (ip), vehicle: suspension in saline); 94 % of control (dose: 200.0 mg/kg/injection, schedule: Q01DX009 (ip), vehicle: suspension in saline).
